Measurements published in ChEMBL document CHEMBL1153757, “Multivariate QSAR study of 4,5-dihydroxypyrimidine carboxamides as HIV-1 integrase inhibitors” (Eur J Med Chem, 2009).

Target: Human immunodeficiency virus type 1 integrase (Human immunodeficiency virus 1, UniProt Q7ZJM1)
Assay: Inhibition of HIV1 integrase strand transfer activity

Sequence of Human immunodeficiency virus type 1 integrase (Q7ZJM1 whole entry): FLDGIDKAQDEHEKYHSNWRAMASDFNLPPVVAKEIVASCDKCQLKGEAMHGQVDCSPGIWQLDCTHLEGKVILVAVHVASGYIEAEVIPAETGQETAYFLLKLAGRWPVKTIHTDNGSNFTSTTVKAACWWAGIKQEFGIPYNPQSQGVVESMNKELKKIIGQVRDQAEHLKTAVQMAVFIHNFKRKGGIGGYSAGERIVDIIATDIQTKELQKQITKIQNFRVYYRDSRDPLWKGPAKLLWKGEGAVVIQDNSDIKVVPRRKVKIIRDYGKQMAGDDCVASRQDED

O=C(NCn1ccnc1)c1nc(-c2cccs2)nc(O)c1O
IC50: 17000 nM

O=C(NCn1cncn1)c1nc(-c2cccs2)nc(O)c1O
IC50: 50100 nM

O=C(NCc1cncs1)c1nc(-c2cccs2)nc(O)c1O
IC50: 2510 nM

O=C(Nc1ccc2ccccc2c1)c1nc(-c2cccs2)nc(O)c1O
IC50: 30.2 nM

O=C(NCc1cc2ccccc2s1)c1nc(-c2cccs2)nc(O)c1O
IC50: 10 nM

O=C(NCc1csc2ccccc12)c1nc(-c2cccs2)nc(O)c1O
IC50: 50.1 nM

O=C(NCc1cccs1)c1nc(-c2cccs2)nc(O)c1O
IC50: 100 nM

O=C(NCc1nccs1)c1nc(-c2cccs2)nc(O)c1O
IC50: 200 nM

COc1ccccc1CNC(=O)c1nc(-c2cccs2)nc(O)c1O
IC50: 91.2 nM

O=C(NCc1ccccc1F)c1nc(-c2cccs2)nc(O)c1O
IC50: 162 nM

O=C(Nc1cccc2ccccc12)c1nc(-c2cccs2)nc(O)c1O
IC50: 214 nM

O=C(N[C@@H]1CCc2ccccc21)c1nc(-c2cccs2)nc(O)c1O
IC50: 20 nM

O=C(NCC1CCCCC1)c1nc(-c2cccs2)nc(O)c1O
IC50: 10 nM

O=C(N[C@H]1CCc2ccccc21)c1nc(-c2cccs2)nc(O)c1O
IC50: 617 nM
